Results as given in patent US20140193871A1, “METHOD FOR ENHANCING CARBON BIOFIXATION” (Industrial Technology Research Institute, priority 2013, published 2014).

Assays:
[1] = tested on: Clostridium ljungdahlii BCRC 17797; assay: Growth (OD600) of Clostridium ljungdahlii under CO2/H2 gas mixture; type: cell-based; conditions: for OD600 value: t=144 hours, 2.5 g/L sodium lactate or 1.52 g/L NaCl in mPETC, 80% H2/20% CO2, 37° C.
Method: (§1) Clostridium ljungdahlii was first cultured anaerobically with mPETC medium containing 10 g/L of fructose at 37° C. in one of the air-tight bottles mentioned above. When OD600 reached a value ranging from 1 to 1.5, the culture medium was centrifuged at 3500 rpm for 210 seconds. The resulting cell pellet was resuspended with mPETC without fructose and then further cultured anaerobically at 37° C. for one hour to remove any residual sugar substrates.
(§2) 45 ml of mPETC culture medium was added to one of the crimp-top serum bottles mentioned above, which was then covered with an aluminum foil and autoclaved for 15 minutes at 121° C., 15 psi. After cooling, the medium-containing bottle was moved into an anaerobic chamber, and 50 μl of cysteine-HCl (50% w/v) was added to the medium to remove any dissolved oxygen.
(§3) For an experimental group, sodium lactate solution was further added to the culture medium to obtain a lactate concentration of 2.5 g/L (about 0.022 M).
(§4) For a sodium ion control group, NaCl solution was added to the culture medium to obtain a NaCl concentration of 1.52 g/L (about 0.026 M). This control group was designed to test whether the sodium ions present in the sodium lactate play any role in carbon dioxide fixation. Thus, the same molar amount of sodium ion as the experimental group was added.
(§5) Each of the serum bottles containing 45 ml of mPETC culture medium was then inoculated with 5 ml of Clostridium ljungdahlii culture that had residual sugar removed. A sample taken at this point was labeled as t=0 sample. The bottles were then sealed with rubber stoppers and further covered with aluminum crimp caps to ensure an air-tight closure.
The headspaces of the air-tight bottles were first purged with a gas mixture containing 80% N2 and 20% of CO2 under a pressure of 10 psi. Needles were inserted into the rubber stops to allow the gas to escape from the bottles. […]
Syringes with needles were used to collect liquid samples. […] The supernatant was analyzed with an Agilent 1100 series high-performance liquid chromatography (HPLC) with Aminex HPX-87 H (300 mm×7.8 mm) column.

[2] = tested on: Clostridium ljungdahlii BCRC 17797; assay: HPLC analysis of culture medium: acetic acid produced and lactic acid consumed during CO2 fermentation; type: cell-based; conditions: for carbon atoms contained in acetic acid produced / Acetic Acid ΔC (Ct=144 h − Ct=0), acetic acid produced: 144 hours of culture; for Acetic Acid ΔC (Ct=144 h − Ct=0), acetic acid produced / Acetic Acid Ct=0 h / Acetic Acid Ct=144 h: 2.5 g/L sodium lactate or 1.52 g/L sodium chloride in mPETC; for Acetic Acid Ct=0 h: t=0; for Acetic Acid Ct=144 h: t=144 hours; for Acetate production: after 96 hours of culture
Method: as §1, §2, §3, §4, §5
The headspaces of the air-tight bottles were first purged with a gas mixture containing 80% N2 and 20% of CO2 under a pressure of 10 psi. Needles were inserted into the rubber stops to allow the gas to escape from the bottles. After about 30 seconds of exposure to the gas mixture, an anaerobic condition filled with CO2 was obtained within the bottles.
Using needles, the headspaces of the bottles were then further purged with another gas mixture containing 80% H2 and 20% of CO2 under a pressure of 20 psi to replace the previous gas mixture. After about 30 seconds, needles were removed and the pressure within the bottles was built up to about 20 psi. The bottles were then moved to a 37° C. incubator and placed on a shaker providing a shaking speed of 100 rpm.
Every 12 hours, a needle was used to release the gas built up within the bottle, and the headspace of the bottle was purged and refreshed under the same process as described above to replenish gaseous carbon source under a stabilized pressure.
(§6) Syringes with needles were used to collect liquid samples. After measuring the OD600, the liquid samples were centrifuged at 12,000 rpm for 10 minutes. The resulting cell pellet was stored in 700 μl TRIzol solution for later RNA extraction and gene expression analysis. The supernatant was analyzed with an Agilent 1100 series high-performance liquid chromatography (HPLC) with Aminex HPX-87 H (300 mm×7.8 mm) column.
The experimental protocol as described in Example 1 was repeated, except that, besides having a no-additive control group, two experimental groups were prepared, one had 1 g/L of lactate in the culture medium and the other had 2.5 g/L of lactate in the culture medium.

[3] = tested on: lactate permease and genes involved in the Wood-Ljungdahl pathway; assay: RT-qPCR expression of lactate permease and Wood-Ljungdahl pathway genes; type: cell-based, Clostridium ljungdahlii; conditions: 2.5 g/L sodium lactate; relative to no-additive control group (FIG. 3)
Method: as §6
Real-time quantitative polymerase chain reaction (RT-qPCR) was used to quantify the expression of certain genes listed in Table 2.

Compound	OD600 value [1]	carbon atoms contained in acetic acid produced [2]	Acetic Acid ΔC (Ct=144 h − Ct=0), acetic acid produced [2]	Acetic Acid ΔC (Ct=144 h − Ct=0), acetic acid produced ([2]; listed as sodium-ion control group)	Acetic Acid Ct=0 h [2]	Acetic Acid Ct=144 h [2]	difference in growth rates between groups ([1]; experimental, sodium ion control and no-additive control groups, up to 144 hours)	Acetate production ([2]; 1 g/L lactate in medium)	Acetate production ([2]; 2.5 g/L lactate in medium)	amount of CO2 converted (fixed) to acetic acid, higher than control group ([2]; 144 hours, 0.191 M versus 0.166 M of control group)	carbon atoms that came from CO2 in the gas mixture (CO2 fixed to acetic acid) ([2]; 144 hours, 2.5 g/L sodium lactate, 0.213 M minus 0.022 M)	fold increase of CooS1 [3]	fold increase of lactate permease [3]	fold increase of metF [3]
[Cl-].[Na+] [sodium chloride, reference compound]	0.82	about 0.166 M	4.91 g/L	about 4.97 g/L	0.06 ± 0.00 g/L	4.97 ± 0.82 g/L								
CC(O)C(=O)O (stereo not shown) [sodium lactate]	0.71	about 0.213 M	6.39 g/L		0.06 ± 0.00 g/L	6.45 ± 0.43 g/L	no significant difference	8.13 ± 1.59 g/L	9.15 ± 0.06 g/L	at least 15%	at least 0.191 M	~3 fold	~11 fold	~4 fold
